IC50 data for eight molecules are collected here from PubChem BioAssay AID624448 (The Scripps Research Institute Molecular Screening Center, 2012).

In general, IC50 refers to the point on the concentration scale where inhibition reaches its midpoint.

This test concerns the target Serine/threonine-protein phosphatase 5 (Homo sapiens) (UniProt P53041). In words: PP5 phosphatase inhibitor potency, late-stage follow-up, biochemical, OMFP substrate, fluorescence, round 5, 1 µM low dose (AID 624448). The settings on record: purified PP5c, OMFP dephosphorylation.

Structures are written as SMILES. The source made the active and inactive calls.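 How the source made its calls: active means PP5 phosphatase activity cut by at least half at the top 100 µM dose; inactive means less than half inhibition at 100 µM.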 A value given as a limit tells only on which side of the number the result lay.

Chain of Serine/threonine-protein phosphatase 5 (Homo sapiens) (P53041 whole entry, looked up): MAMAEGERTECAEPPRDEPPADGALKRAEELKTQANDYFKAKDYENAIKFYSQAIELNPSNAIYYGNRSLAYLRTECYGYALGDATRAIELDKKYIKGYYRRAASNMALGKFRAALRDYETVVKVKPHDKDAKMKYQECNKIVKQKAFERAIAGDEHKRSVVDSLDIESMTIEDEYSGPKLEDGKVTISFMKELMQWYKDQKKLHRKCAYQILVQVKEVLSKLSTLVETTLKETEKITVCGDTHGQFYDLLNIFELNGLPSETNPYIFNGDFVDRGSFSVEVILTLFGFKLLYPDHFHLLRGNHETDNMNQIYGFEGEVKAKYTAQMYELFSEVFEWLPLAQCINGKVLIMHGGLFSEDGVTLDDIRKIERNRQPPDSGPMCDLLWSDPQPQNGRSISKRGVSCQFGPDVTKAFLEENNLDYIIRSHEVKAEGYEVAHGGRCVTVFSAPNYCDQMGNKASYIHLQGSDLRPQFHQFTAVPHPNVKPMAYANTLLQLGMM

On to `O=C(O)c1nnn(-c2ccccc2)c1-c1ccccc1`, for which the IC50 was > 100 µM (inactive). To `O=C(O)c1ncn[nH]1` belongs > 100 µM (inactive); to `O=C(O)c1cn(Cc2ccccc2)nn1`, > 100 µM (inactive). With `O=C(O)c1cn[nH]c1-c1ccccc1` the figure was > 100 µM (inactive); with `O=C(O)c1cn[nH]n1`, > 100 µM (inactive); with `COC(=O)c1n[nH]nc1-c1ccccc1`, > 100 µM (inactive).

With `O=C(O)c1nn(Cc2ccccc2)nc1Cl`, the IC50 was > 100 µM (inactive). To `Cc1n[nH]nc1C(=O)O` belongs > 100 µM (inactive).
